US11542471B2, “Method for producing ciliary marginal zone-like structure” (SUMITOMO CHEMICAL COMPANY, LIMITED, priority 2012, dated 2023)

Tested on: cell aggregate containing a retinal tissue (RAX::GFP knock-in human ES cells, derived from KhES-1)
Assay: Suspension culture of a human ES cell-derived cell aggregate containing retinal tissue in serum-free medium with a substance acting on the Wnt signal pathway; cryosection immunostaining
Assay type: cell-based
Settings: 3 μM CHIR99021, serum-free medium, 3 days from day 18 of suspension culture
Description: The “proportion of Chx10 positive cells” in a retinal tissue contained in a cell aggregate produced as mentioned above can be examined by, for example, the following method. • (1) First, a cryosection of “a cell aggregate comprising a retinal tissue” is prepared. • (2) Then, immunostaining of Rax protein or, when a gene recombinant cell obtained by altering a Rax gene expressing cell to express a fluorescence protein such as GFP is used, the expression of the aforementioned fluorescence protein, is observed using a fluorescence microscope and so on, whereby a retinal tissue region expressing Rax gene is specified. • (3) Using the same section as the cryosection wherein the retinal tissue region expressing Rax gene has been specified or an adjacent section as a sample, the nucleus is stained with a nuclear staining reagent such as Dapi. Then, the number of stained nuclei in the above-specified retinal tissue region expressing Rax gene is counted, whereby the number of the cells in the retinal tissue region is measured. • (4) Using the same section as the cryosection wherein the retinal tissue region expressing Rax gene has been specified or an adjacent section as a sample, Chx10 protein is immunostained. […]

Cc1c[nH]c(-c2cnc(NCCNc3ccc(C#N)cn3)nc2-c2ccc(Cl)cc2Cl)n1 [CHIR99021]
appearance of RPE65 gene expressing cell in the cell aggregate: did not appear | proportion of Chx10 positive cells in the retinal tissue (about 40% before addition): about 3%
